Data published in patent US11427869B2, “T cell balance gene expression, compositions of matters and methods of use thereof” (THE BROAD INSTITUTE, INC., priority 2015, dated 2022).

Key:
[1] = mice fed with a diet rich in PUFA (Monk et al., 2012, 2013); cited from earlier work
Th17 cells = experiment: Flow cytometry and intracellular cytokine staining of T cells; assay type: cell-based, mouse
Procedure: WT, CD5L−/− and Rorγt−/− Th17 cells were differentiated with TGF-1+IL-6 for 96h. […] Three independent experiments were performed. […] (FIG. 18E) Naïve WT T cells were activated without polarizing cytokines (Th0) and infected with retrovirus expressing Rorγt in the presence of control-RV or CD5L-RV with or without FF-MAS (5 uM) as a source of Rorγt ligand. Each dot represents an independent infection. (FIG. 18F) WT or CD5L−/− naïve cells were differentiated with TGF-β1+IL-6. At 48h, cells were replated in fresh media with either control or FF-MAS (5 uM) as a source of Rorγt ligand. Cells were harvested for FACS analysis 72h later.
T cell differentiation culture. Naïve CD4+CD44−CD62L+CD25− T cells or Effector memory CD4+CD44+CD62L− were sorted using BD FACSAria sorter and activated with plate-bound anti-CD3 and anti-CD28 antibodies (both at 2 μg/ml) in the presence of cytokines at a concentration of 2.5×10^5 cells/ml. For Th17 differentiation: 2 ng/ml of rhTGFβ1, 2 ng/ml of rhTGFβ3, 25 ng/ml rmIL-6, 20 ng/ml rmIL-18 (all from Miltenyi Biotec) and 20 ng/ml rmIL-23 (R & D systems) were used at various combinations as specified in figures. For Th1 differentiation, 20 ng/ml rmIL-12 (R & D systems); for Th2 differentiation 20 ng/ml rmIL-4 (Miltenyi Biotec); for iTreg differentiation, 2.5 ng/ml of rhTGFβ1 were used (Miltenyi Biotec). For differentiation experiments, cells were harvested at 48 hours. For restimulation experiments, cells were differentiated for 48 hours and resuspended in fresh media with no additional cytokines for 48-72 hours. Cells were re-stimulated with PMA/ionomycin for four hours before analysis for cytokines by intracellular cytokine staining. For experiments with exogenous fatty acid, fatty acids were purchased and resuspended first with serum-free media containing BSA prior being added to culture.
Flow cytometry and intracellular cytokine staining. Sorted naïve T cells were stimulated with phorbol 12-myristate 13-acetate (PMA) (50 ng/ml, Sigma-aldrich), ionomycin (1 μg/ml, Sigma-aldrich) and a protein transport inhibitor containing monensin (Golgistop) (BD Biosciences) for 4 h before detection by staining with antibodies.

Rorγt = target: T1, Rorγt (Mus musculus, UniProt P51450); experiment: Rorγt ChIP-qPCR in Th17 cells; assay type: cell-based; settings: WT Th17 cells, TGF-β1+IL-6 96h; 10 μM fatty acid added at day 0
T1 construct: expressed in transfected cells; host or cells: EL4 cells stably transfected with Rorγt vector
T1 sequence (P51450 1-495 isoform P51450-2): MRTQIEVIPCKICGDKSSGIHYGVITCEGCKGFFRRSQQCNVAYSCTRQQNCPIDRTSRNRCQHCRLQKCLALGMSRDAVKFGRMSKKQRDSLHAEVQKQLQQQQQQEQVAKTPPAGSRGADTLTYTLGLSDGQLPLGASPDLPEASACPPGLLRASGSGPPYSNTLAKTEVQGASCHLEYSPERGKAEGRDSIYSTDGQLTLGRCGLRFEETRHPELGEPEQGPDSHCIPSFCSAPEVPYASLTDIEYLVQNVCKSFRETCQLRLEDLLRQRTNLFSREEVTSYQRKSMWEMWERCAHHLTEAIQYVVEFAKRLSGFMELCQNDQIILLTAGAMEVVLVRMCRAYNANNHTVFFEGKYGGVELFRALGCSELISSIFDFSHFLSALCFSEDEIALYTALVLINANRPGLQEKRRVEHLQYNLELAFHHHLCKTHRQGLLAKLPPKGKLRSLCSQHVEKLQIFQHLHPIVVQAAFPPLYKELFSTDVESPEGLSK
Procedure: (FIG. 18A, FIG. 18B) Rorγt ChIP-PCR analyses in WT and CD5L−/− Th17 cells. WT, CD5L−/− and Rorγt−/− Th17 cells were differentiated with TGF-1+IL-6 for 96h. Enrichment of Rorγt binding to genomic regions of Il17 (FIG. 18A) and Il10 (FIG. 18B) is measured using qPCR. […] Three independent experiments were performed.

For `CCCCC/C=C\C/C=C\C/C=C\C/C=C\CCCC(=O)O` [PUFA, arachidonic acid], the “severity of chronic colitis and Th17 cell polarization” value [1] is listed as “reduced severity of chronic colitis and Th17 cell polarization”, the “percentage of IL-17+CD4+ T cells” value (Th17 cells; CD5L−/− Th17 cells differentiated with TGF-β1+IL-6) is listed as “reduced percentage of IL-17+CD4+ T cells” and the “IL-17 and IL-23R expression” value (Th17 cells; WT Th17 cells differentiated with TGF-β1+IL-6 and expanded using IL-23 with fatty acid) is listed as “suppressed IL-17 and IL-23R expression”. For the same compound, the “Rorγt binding at Il17 and Il23r loci (ChIP-PCR)” value (Rorγt) was “decreased such binding” and the “Rorγt binding to the Il10 CNS-9 locus (ChIP-PCR)” value (Rorγt) was “increased Rorγt binding to the Il10 CNS-9 locus”.
